The target in series [1] is T1, BdUGT5g03300 (Brachypodium distachyon, UniProt I1IW79).
T1 sequence (I1IW79 1-469): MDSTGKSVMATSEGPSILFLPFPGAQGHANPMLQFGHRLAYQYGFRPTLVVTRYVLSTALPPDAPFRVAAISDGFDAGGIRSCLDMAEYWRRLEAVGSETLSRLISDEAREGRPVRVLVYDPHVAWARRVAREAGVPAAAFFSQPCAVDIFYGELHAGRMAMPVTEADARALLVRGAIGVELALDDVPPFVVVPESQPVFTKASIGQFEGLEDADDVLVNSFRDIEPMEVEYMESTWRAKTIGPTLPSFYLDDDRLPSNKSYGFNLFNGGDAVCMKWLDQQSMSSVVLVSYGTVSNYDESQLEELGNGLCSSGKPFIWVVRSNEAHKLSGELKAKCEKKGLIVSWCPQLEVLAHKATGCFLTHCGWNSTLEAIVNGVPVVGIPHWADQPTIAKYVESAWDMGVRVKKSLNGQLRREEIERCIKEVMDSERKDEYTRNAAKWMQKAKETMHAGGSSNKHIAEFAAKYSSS
As to the kind of experiment: biochemical.

In series [2] the target is T2, OsUGT79 (Oryza sativa subsp. japonica, UniProt Q7XT97).
T2 construct: made in house; host or cells: E. coli
T2 sequence (Q7XT97 1-466): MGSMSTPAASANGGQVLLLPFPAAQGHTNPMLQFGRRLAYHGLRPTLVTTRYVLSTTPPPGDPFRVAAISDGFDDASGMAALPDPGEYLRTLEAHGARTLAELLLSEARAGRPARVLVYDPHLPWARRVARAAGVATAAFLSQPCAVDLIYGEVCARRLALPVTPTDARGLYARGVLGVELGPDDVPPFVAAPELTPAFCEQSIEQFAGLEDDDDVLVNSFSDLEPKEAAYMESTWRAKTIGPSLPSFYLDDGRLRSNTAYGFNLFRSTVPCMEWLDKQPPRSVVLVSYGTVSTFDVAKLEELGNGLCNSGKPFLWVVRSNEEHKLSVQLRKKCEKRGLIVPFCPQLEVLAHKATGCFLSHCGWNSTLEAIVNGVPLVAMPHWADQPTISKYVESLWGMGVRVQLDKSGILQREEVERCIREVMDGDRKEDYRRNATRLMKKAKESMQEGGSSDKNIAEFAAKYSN
Kind of series: biochemical. The class given is biochemical.

Series [3] concerns the target T3, OsUGT79 Q202A (Oryza sativa subsp. japonica, UniProt Q7XT97, Q202A).
T3 sequence (Q7XT97 1-466 Q202A): T2 sequence (Q7XT97 1-466) with Q202A
The format is biochemical.

The target in series [4] is T4, OsUGT79 H122A/L123A/Q202A (Oryza sativa subsp. japonica, UniProt Q7XT97, H122A/L123A/Q202A).
T4 sequence (Q7XT97 1-466 H122A/L123A/Q202A): T2 sequence (Q7XT97 1-466) with H122A, L123A, Q202A
The class given is biochemical.

The target in series [5] is T1, BdUGT5g03300. The class given is biochemical.
Series [6] has as its target T2, OsUGT79. As to the kind of experiment: biochemical. The class given is biochemical. The source holds these as a separate data set.
Series [7] concerns the target T3, OsUGT79 Q202A. Kind of series: biochemical. The format is biochemical.
Series [8] has as its target T4, OsUGT79 H122A/L123A/Q202A. As to the kind of experiment: biochemical. The format is biochemical.
The subject of series [9] is wheat cultivar Apogee seedlings. More on the design: species or system Triticum aestivum. To be noted: in vivo.
Another series relates to B. distachyon Bd21-3. On the set-up: species or system Brachypodium distachyon. To be noted: in vivo.
For series [10], the system named is B. distachyon line OE-10R14. On the set-up: species or system Brachypodium distachyon. To be noted: in vivo.
The target in series [11] is T5, HvUGT13248 (Hordeum vulgare subsp. vulgare, UniProt M0Y4P1).
T5 sequence (M0Y4P1 1-475): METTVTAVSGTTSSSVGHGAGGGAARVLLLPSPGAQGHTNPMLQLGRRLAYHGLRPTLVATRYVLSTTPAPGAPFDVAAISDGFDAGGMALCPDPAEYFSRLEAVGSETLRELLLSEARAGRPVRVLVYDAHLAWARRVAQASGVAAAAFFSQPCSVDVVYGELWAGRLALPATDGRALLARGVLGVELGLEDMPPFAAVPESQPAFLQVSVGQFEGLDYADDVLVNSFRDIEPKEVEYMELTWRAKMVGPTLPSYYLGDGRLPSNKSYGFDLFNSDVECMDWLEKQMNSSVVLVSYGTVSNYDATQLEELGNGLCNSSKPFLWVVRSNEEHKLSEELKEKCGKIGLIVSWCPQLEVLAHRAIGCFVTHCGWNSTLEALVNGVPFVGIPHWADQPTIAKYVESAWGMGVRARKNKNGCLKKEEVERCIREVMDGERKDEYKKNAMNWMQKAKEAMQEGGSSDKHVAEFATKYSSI

Series [12] deals with T5, HvUGT13248. Kind of series: biochemical. The format is biochemical. On the set-up: made in house; host or cells: E. coli.
Substrate in series [13]: CC1(C)CCC[C@]2(C)[C@@H]3[C@H]1[C@@H](O)[C@@]2(C)C[C@H]3O
Kind of series: purified protein, by the assay type.

Positions count from the first letter of the chain named. Several values for one entry are separate records, joined by “and”; a condition that tells them apart may be missing. Equal entries are not always repeated. Where two headings read alike, the source gives them in different places.

In the case of 11-Acetyl-culmorin, the “Glucosylation rate of DON, percentage of the control” value on BdUGT5g03300 [1] was determined as 0.83±0.01%.
For `CC1=C[C@H]2O[C@@H]3[C@H](O)C[C@](C)([C@@]2(CO)[C@H](O)C1=O)[C@]31CO1` [DON, deoxynivalenol], the “Specific activity (glucoside formation)” value was 1.07 ± 0.03 nmol/min/mg at BdUGT5g03300 [1]; 159 ± 33 nmol/min/mg on OsUGT79 [2]; 161 ± 46 nmol/min/mg on OsUGT79 Q202A [3]; 6.60 ± 0.31 nmol/min/mg in series [4]; 8.77 ± 0.52 nmol/min/mg at HvUGT13248 [11]. Further, the “K M (DON)” value at BdUGT5g03300 [5] is 1100 µM; on OsUGT79 [6] it was 190 µM; on OsUGT79 Q202A [7], 290 µM; in series [8] it was 1300 µM; at HvUGT13248 [12], 1800 µM. The “V max with DON” value stood at 0.14 µmol/min/mg at BdUGT5g03300 [5]; 0.63 µmol/min/mg at OsUGT79 [6]; 0.85 µmol/min/mg at OsUGT79 Q202A [7]; 0.26 µmol/min/mg in series [8]; 0.18 µmol/min/mg on HvUGT13248 [12]. Moreover, in [9], the “DON concentration at which root growth was already impaired” value was 3 mg/L. Further, the “Effect on primary and total root length” value in [9] was “significant reduction”. Also, in the series with B. distachyon Bd21-3, the “DON concentration up to which root growth was observed” value was “up to 16 mg l^−1”. The “DON concentrations at which root growth was not affected or barely affected” value in the series with B. distachyon Bd21-3 fell in the range of 2 to 8 mg/L. Further, the “DON concentration tolerated without significant reduction in root length” value in series [10] was “up to 50 mg l^−1”.
Consider Culmorin-8,11-disulfate, for which the “Glucosylation rate of DON, percentage of the control” value at BdUGT5g03300 [1] was 95±1% and 78±1%; on OsUGT79 [2], 103±2% and 99±7%; at HvUGT13248 [11], 98±2%.
For Culmorin-8-glucoside, the “Glucosylation rate of DON, percentage of the control” value was 0.93±0.02% at BdUGT5g03300 [1]; 97±7% and 91±7% on OsUGT79 [2]; 92±2% and 81±3% on HvUGT13248 [11].
With Culmorin-8-sulfate, the “Glucosylation rate of DON, percentage of the control” value on OsUGT79 [2] was 105±1% and 89±4%; on HvUGT13248 [11], 97±4% and 79±1%.
For the molecule Culmorin-11-glucoside, the “Glucosylation rate of DON, percentage of the control” value was 0.48±0.03% on BdUGT5g03300 [1]; 96±7% and 115±5% at OsUGT79 [2].
On to Culmorin-11-sulfate, for which the “Glucosylation rate of DON, percentage of the control” value on BdUGT5g03300 [1] was 0.30±0.02%; on OsUGT79 [2] it was 91±7% and 61±2%; at HvUGT13248 [11], 90±2% and 49±3%.

B1: BdUGT5g03380 (Brachypodium distachyon) (protein)
chain: MESVNTSPHSSDHEGGGGGGAHVLLVPLPAQGHMNPMLQFGRRLAYHGLRPTLAATRYVLSTGPPPGAPFRVAAFSDGFDAGGMASCADPVEYCRKFEAVGSSTLAQAIESETAAGRAPTVLVYDPHMAWVPRVARAAGVPVAAFMSQSCAVDLVYGEAWAGRAPLPMADGSALKRRGIVSIDLAAEDLSPFVVSPEIYPKYLDVSIRQFEALDDADDVFVNSFRDLEPLEAEYMEKRWRAKTVGPTLPSFFLGDDRLPSNKAYGVNFFSATAPCMAWLDRQPARSVVLASYGTVYNLESMELDELGNGLCDSGKPFLWVVRSSEAEKLSEQLLGRCKEKGLIVPWCPQLDVLAHNAIGCFLTHCGWNSTTEAIVAGVPMVAMPRSADQPTTAKYVESAWGIGVRVRADEKGLVKRAEVEGCIKKVMDGEMKDEFRGNAAEWMRKAKEAMQEGGSSDKNIAEFAAKYLER
On to B1, for which, in series [13], the Km (usually the concentration of substrate that gives half-maximal velocity) is reported as 150 µM and the maximal velocity (Vmax) (as a rule, the top rate of the reaction or transport when substrate is in excess) turned out to be 0.43 ± 0.03 nmol/min/mg.

B2: HvUGT13248 (Hordeum vulgare subsp. vulgare) (protein)
chain: T5 sequence (M0Y4P1 1-475)
For B2, in [13] (pH 7.0), the Km amounted to 27 ± 4 µM and the Vmax was found to be 18.2 ± 0.8 nmol/min/mg.

B3: BdUGT5g03370 (Brachypodium distachyon) (protein)
chain: MDSINTTAQRSIGGGGGHVLLLPFPGMQGHANPMLQLGRRLAYHGLRPTLVVTRYVFSTTATTDGCPFPVAAISDGFDAGGIASCPDTAEYLRRMESVGSETLSRLISDEARAGRPVRVLVYDSHLPWARRAAKRAGVAAAAFLTQLCAVDVIYGEAWAGRVALPLTDGSALRGVLSVELGPDDVPPFVAAPEWYPAFTESALGQFDGLEEADDVLVNSFRDLEPKEADYMELVWRTKTVGPTLPSFYLDDNRLPLNKTYGFNLFSSIALCMEWLDKQVPCSVVLASYGTVANLNSTQLEELGYGLCNSRQPFLWVLRSDEAEKLPKDLRDKCNTKGLIVPFCPQLEVLAHKATGCFLTHCGWNSTIEAIVTGVPMVAIPQWADQPTTAKYVESAWGIGRRACPDRECLVTREKIERCVKEVICGEKEYTRNAAKWMQKAKEAMQQGGSSDKNISDFVAKYL
As for B3, in series [13], the Km was 59 ± 7 µM and the Vmax was 0.57 nmol/min/mg.

The values above are taken from publication PMC13415951 (Journal of Experimental Botany, 2026).
